Assay results from BindingDB's records for doi:10.7270/Q2TB1590 (Nmmlsc, 2007).

Target: T1, fMet-Leu-Phe receptor (Homo sapiens, UniProt P21462)
T1 sequence (P21462 whole entry): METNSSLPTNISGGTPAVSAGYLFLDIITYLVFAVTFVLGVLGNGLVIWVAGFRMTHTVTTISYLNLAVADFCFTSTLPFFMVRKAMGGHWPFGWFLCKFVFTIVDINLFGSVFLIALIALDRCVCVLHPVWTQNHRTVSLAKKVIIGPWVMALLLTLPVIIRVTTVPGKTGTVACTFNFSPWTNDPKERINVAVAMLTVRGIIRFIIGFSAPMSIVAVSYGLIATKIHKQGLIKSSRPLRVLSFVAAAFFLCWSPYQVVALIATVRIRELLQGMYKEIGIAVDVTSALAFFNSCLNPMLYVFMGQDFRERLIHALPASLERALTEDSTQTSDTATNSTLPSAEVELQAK
Experiment: human FPR1 ligand displacement potency – cell-based, flow cytometry, Ki from IC50, dose response (AID 724)

Row | SMILES | IC50 [µM]
1 | CC(=O)C1C(=O)C(=O)N(CCc2c(C)[nH]c3ccccc23)C1c1cccc(F)c1 (stereo not given) | 17.2
2 | O=C1C(=O)N(CCc2ccccc2)C(c2ccc(Cl)cc2)C1C(=O)c1cccs1 (stereo not given) [2-(4-chlorophenyl)-4-hydroxy-1-(2-phenylethyl)-3-(thiophene-2-carbonyl)-2H-pyrrol-5-one] | 10.6
3 | COc1ccc(C2C(C(=O)c3ccco3)C(=O)C(=O)N2CCN2CCOCC2)c(OC)c1 (stereo not given) [5-(2,4-dimethoxyphenyl)-4-(furan-2-carbonyl)-3-hydroxy-1-(2-morpholinoethyl)-1H-pyrrol-2(5H)-one] | 9.8
4 | COc1ccc(OC)c(C2C(C(=O)c3ccccc3)C(=O)C(=O)N2c2ccc(C)c(Cl)c2)c1 (stereo not given) [(4E)-1-(3-chloranyl-4-methyl-phenyl)-5-(2,5-dimethoxyphenyl)-4-[oxidanyl(phenyl)methylidene]pyrrolidine-2,3-dione] | 25.7
5 | COc1ccc(C2C(C(=O)c3ccccc3)C(=O)C(=O)N2c2cccc(Cl)c2)c(OC)c1 (stereo not given) [(4E)-1-(3-chlorophenyl)-5-(2,4-dimethoxyphenyl)-4-[hydroxy(phenyl)methylene]pyrrolidine-2,3-quinone] | 47.5
6 | COCCCN1C(=O)C(=O)C(C(=O)c2ccccc2)C1c1ccc(C(C)C)cc1 (stereo not given) [(4E)-1-(3-methoxypropyl)-4-[oxidanyl(phenyl)methylidene]-5-(4-propan-2-ylphenyl)pyrrolidine-2,3-dione] | 31.1
7 | CC(C)c1ccc(C2C(C(=O)c3ccccc3)C(=O)C(=O)N2Cc2cccnc2)cc1 (stereo not given) [(4E)-4-[hydroxy(phenyl)methylene]-5-p-cumenyl-1-(3-pyridylmethyl)pyrrolidine-2,3-quinone] | 50.7
8 | COc1ccc(C2C(C(=O)c3ccc(C)cc3)C(=O)C(=O)N2Cc2cccnc2)c(OC)c1 (stereo not given) [(4E)-5-(2,4-dimethoxyphenyl)-4-[(4-methylphenyl)-oxidanyl-methylidene]-1-(pyridin-3-ylmethyl)pyrrolidine-2,3-dione] | 59.7
9 | COc1ccc(OC)c(C2C(C(=O)c3ccccc3)C(=O)C(=O)N2c2cccnc2)c1 (stereo not given) [(4E)-5-(2,5-dimethoxyphenyl)-4-[hydroxy(phenyl)methylene]-1-(3-pyridyl)pyrrolidine-2,3-quinone] | 9.2
10 | COCCCN1C(=O)C(=O)C(C(=O)c2ccccc2)C1c1ccc(O)c(OC)c1 (stereo not given) [(4E)-5-(3-methoxy-4-oxidanyl-phenyl)-1-(3-methoxypropyl)-4-[oxidanyl(phenyl)methylidene]pyrrolidine-2,3-dione] | 50.5

Now those with a lower IC50, led by results:

Row | IC50 [µM] | SMILES
11 | 7.1 | COc1ccc(C2C(C(=O)c3cccs3)C(=O)C(=O)N2CCCn2ccnc2)cc1 (stereo not given) [1-(3-imidazol-1-ylpropyl)-2-(4-methoxyphenyl)-4-oxidanyl-3-thiophen-2-ylcarbonyl-2H-pyrrol-5-one]
12 | 4.4 | COc1ccc(C2C(C(=O)c3cccs3)C(=O)C(=O)N2CCN2CCOCC2)c(OC)c1 (stereo not given) [2-(2,4-dimethoxyphenyl)-1-(2-morpholin-4-ylethyl)-4-oxidanyl-3-thiophen-2-ylcarbonyl-2H-pyrrol-5-one]
13 | 5.2 | COc1ccc(C2C(C(=O)c3ccccc3)C(=O)C(=O)N2CCCn2ccnc2)c(OC)c1 (stereo not given) [(4E)-5-(2,4-dimethoxyphenyl)-1-(3-imidazol-1-ylpropyl)-4-[oxidanyl(phenyl)methylidene]pyrrolidine-2,3-dione]
14 | 2.8 | COCCN1C(=O)C(=O)C(C(=O)c2ccccc2)C1c1cc(OC)ccc1OC (stereo not given) [(4E)-5-(2,5-dimethoxyphenyl)-1-(2-methoxyethyl)-4-[oxidanyl(phenyl)methylidene]pyrrolidine-2,3-dione]
15 | 7.2 | CCCCCCN1C(=O)C(=O)C(C(=O)c2ccccc2)C1c1ccc(O)c(OC)c1 (stereo not given) [(4Z)-1-hexyl-5-(3-methoxy-4-oxidanyl-phenyl)-4-[oxidanyl(phenyl)methylidene]pyrrolidine-2,3-dione]
